Measured values published in PubChem BioAssay (NCI).
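GI50: concentration for 50% inhibition of growth. TGI: total growth inhibition.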

Legend:
Assay in all cases: growth of human tumour cells (NCI), 384-well format
[1] = system: A498 renal
[2] = system: SR leukemia
[3] = system: SF-295 CNS
[4] = system: K-562 leukemia
[5] = system: UO-31 renal
[6] = system: SK-MEL-28 melanoma
[7] = system: OVCAR-4 ovarian
[8] = system: EKVX NSCLC
[9] = system: MDA-MB-231 breast
[10] = system: MOLT-4 leukemia
[11] = system: SK-OV-3 ovarian
[12] = system: TK-10 renal
[13] = system: NCI-H460 NSCLC
[14] = system: 786-0 renal
[15] = system: HCT-15 colon
[16] = system: MDA-MB-435 melanoma
[17] = system: HOP-62 NSCLC
[18] = system: ACHN renal
[19] = system: IGROV1 ovarian
[20] = system: SNB-19 CNS
[21] = system: HL-60(TB) leukemia
[22] = system: HS 578T breast
[23] = system: NCI-H522 lung
[24] = system: T-47D breast
[25] = system: MDA-MB-468 breast
[26] = system: UACC-62 melanoma
[27] = system: HCT-116 colon
[28] = system: RXF 393 renal
[29] = system: NCI-H226 lung
[30] = system: OVCAR-3 ovarian
[31] = system: SW-620 colon
[32] = system: SN12C renal
[33] = system: OVCAR-8 ovarian
[34] = system: U251 glioblastoma
[35] = system: SF-539 CNS
[36] = system: UACC-257 melanoma
[37] = system: COLO 205 colon
[38] = system: KM12 colon
[39] = system: NCI-H322M lung
[40] = system: HOP-92 NSCLC
[41] = system: SK-MEL-2 melanoma
[42] = system: HT29 colon
[43] = system: OVCAR-5 ovarian
[44] = system: SF-268 CNS
[45] = system: NCI-H23 lung
[46] = system: CAKI-1 renal
[47] = system: M14 melanoma
[48] = system: DU-145 prostate
[49] = system: SNB-75 CNS
[50] = system: MALME-3M melanoma
[51] = system: SK-MEL-5 melanoma
[52] = system: BT-549 breast
[53] = system: PC-3 prostate

Question: Which results are given for Nc1nn2cc(F)cnc2c1C(=O)Nc1cncc(F)c1N1CCC(C(=O)N2CCN(C3COC3)CC2)CC1?
Answer: GI50 [1]: 34.5 nM; TGI [1]: 207 nM; TGI [2]: 22.1 nM; GI50 [3]: 31.5 nM; TGI [3]: 171 nM; GI50 [4]: 48.2 nM; TGI [4]: 179 nM; GI50 [5]: 194 nM; TGI [5]: 717 nM; GI50 [6]: 2040 nM; TGI [6]: > 100000 nM; GI50 [7]: 62.5 nM; TGI [7]: 2440 nM; GI50 [8]: 132 nM; TGI [8]: 615 nM; GI50 [9]: 789 nM; TGI [9]: > 100000 nM; TGI [10]: 11.8 nM; GI50 [11]: 57.3 nM; TGI [11]: 264 nM; GI50 [12]: 29.9 nM; TGI [12]: 231 nM; GI50 [13]: 20.8 nM; TGI [13]: 156 nM; GI50 [14]: 103 nM; TGI [14]: 323 nM; GI50 [15]: 34.7 nM; TGI [15]: 208 nM; GI50 [16]: 35.7 nM; TGI [16]: 308 nM; GI50 [17]: 21.4 nM; TGI [17]: 218 nM; GI50 [18]: 46.9 nM; TGI [18]: 251 nM; GI50 [19]: 170 nM; TGI [19]: 1540 nM; GI50 [20]: 407 nM; TGI [20]: 4350 nM; GI50 [21]: 37.4 nM; TGI [21]: 83.8 nM; GI50 [22]: 13 nM; TGI [22]: 42.2 nM; GI50 [23]: 183 nM; TGI [23]: 735 nM; GI50 [24]: 4730 nM; TGI [24]: > 100000 nM; GI50 [25]: 29.4 nM; TGI [25]: 324 nM; GI50 [26]: 223 nM; TGI [26]: 1570 nM; GI50 [27]: 92.9 nM; TGI [27]: 1750 nM; GI50 [28]: 16 nM; TGI [28]: 53.2 nM; GI50 [29]: 327 nM; TGI [29]: 2240 nM; GI50 [30]: 215 nM; TGI [30]: 1420 nM; GI50 [31]: 227 nM; TGI [31]: > 100000 nM; GI50 [32]: 376 nM; TGI [32]: 2930 nM; GI50 [33]: 174 nM; TGI [33]: 558 nM; GI50 [34]: 141 nM; TGI [34]: 1170 nM; GI50 [35]: 33 nM; TGI [35]: 149 nM; GI50 [36]: 332 nM; TGI [36]: 1890 nM; GI50 [37]: 218 nM; TGI [37]: 2090 nM; GI50 [38]: 32.7 nM; TGI [38]: 727 nM; GI50 [39]: 33.9 nM; TGI [39]: 306 nM; GI50 [40]: 47.9 nM; TGI [40]: 539 nM; GI50 [41]: 24.1 nM; TGI [41]: 80.2 nM; GI50 [42]: 302 nM; TGI [42]: > 100000 nM; GI50 [43]: 543 nM; TGI [43]: > 100000 nM; GI50 [44]: 77.6 nM; TGI [44]: 1740 nM; GI50 [45]: 16.9 nM; TGI [45]: 55.2 nM; GI50 [46]: 185 nM; TGI [46]: 1470 nM; GI50 [47]: 35 nM; TGI [47]: 378 nM; GI50 [48]: 70.5 nM; TGI [48]: 954 nM; GI50 [49]: 219 nM; TGI [49]: 1990 nM; GI50 [50]: 18.8 nM; TGI [50]: 53.2 nM; GI50 [51]: 98.6 nM; TGI [51]: 334 nM; GI50 [52]: 24.5 nM; TGI [52]: 84.4 nM; GI50 [53]: 296 nM; TGI [53]: 2820 nM
